# Assay results as given in patent US8309550B2, “Kinase inhibitors and their use as pharmaceutical agents” (Shanghai Genomics, Inc., priority 2011, dated 2012).
# Where two headings read alike, the source gives them in different places.
# Assays:
# Assay type in all cases: cell-based
# [1] = system: A549 cells; experiment: 72 h MTT cytotoxicity assay A549; settings: Homo sapiens; A549, 72 hrs
# Source text: (§1) MIT cytotoxicity assay. The compounds of the invention were subjected to a standard cellular proliferation assay using human cell lines. HeLa cells (Human cervix adenocarcinoma cell line, ATCC NO, CCL-2); A549 cells (Human lung carcinoma cells line, ATCC NO, CCL-185); U2OS cells (Human osteosarcoma cell line, ATCC NO, HTB-96); Eca-109 cells (Human esophageal carcinoma cell line); HepG2 (Human hepatocellular liver carcinoma cell line, ATCC NO, HB-8065); K562 cells (Human chronic myelogenous leukemia cell line, ATCC NO, CCL-243); SK-MEL-28 (Human malignant melanoma cell line, ATCC NO, HTB-72); Molt-4 (Human acute lymphoblastic leukemia cell line, ATCC NO, CRL-1582); H460 (Human large cell lung cancer cell line, ATCC NO, HTB-177); MDA-MB-231 (Human breast adenocarcinoma cell line, ATCC NO, HTB-26); MCF7 (Human breast adenocarcinoma cell line, ATCC NO, HTB-22); ACHN (Human renal cell adenocarcinoma cell line, ATCC NO, CRL-1611); PC-3M (Human prostate adenocarcinoma cell line, ATCC NO CRL-1435); HL60 (Human acute promyelocytic leukemia cell line, ATCC NO, CCL-240); THP-1 (Human acute monocytic leukemia, ATCC NO, TIB-202); Jurkat (Human acute T cell leukemia cell line, ATCC NO, CRL-2063); HCT-116 (Human colorectal carcinoma cell line, ATCC NO, CCL-247); HT-29 (Human colorectal adenocarcinoma cell line, ATCC NO, HTB-38™); WI-38 (Human normal lung cell line, ATCC NO, CCL-75); MRC-5 (Human normal lung cell line, ATCC NO, CCL-171).
# (§2) HepG2, MDA-MB-231, WI-38 and MRC-5 cells were obtained from Shanghai Institute of Cell Biology, Chinese Academy of Sciences (Shanghai 200031, China). A549, HeLa, K562, MCF7, ACHN, H460, U2OS, Eca-109, MCF7, HL60, THP-1, Jurkat, HCT-116, HT-29, PC-3M, SK-MEL-28, Molt-4, H460 and […] cells were purchased from ATCC (American Type Culture Collection, USA).
# (§3) Standard 72 h MTT (thiazolye blue; 3-[4,5-dimethylthiazol-2-yl]-2,5-diphenyltetrazolium bromide) assays were performed. Briefly, the cell lines used in this study were recovered and cultured according to the conditions recommended. 4000 cells per well were seeded into 96-well plates according to doubling time and incubated overnight at 37° C. Compounds were prepared in DMSO and a ½ dilution series in 100 μl cell culture media, added to cells (in duplicates) with the final DMSO concentration of 0.025%, and incubated for 72 hrs at 37° C. MTT solution (5 mg/ml) was added at 10 μl per well and incubated in the dark at 37° C. for 4 hr. Culture medium and MTT solution was removed. MTT dye was solubilised with 100 μl per well of DMSO with agitation. Absorbance was read at 562 nm and data analyzed using Sigmoid curve-fitting software Origin 6.0 (MicroCal, LLC, USA) to determine IC50 value.
# [2] = system: HepG2; experiment: 72 h MTT cytotoxicity assay HepG2; settings: Homo sapiens; HepG2, 72 hrs
# Source text: as §1, §2, §3
# [3] = system: HeLa cells; experiment: 72 h MTT cytotoxicity assay HeLa; settings: Homo sapiens
# Source text: as §1, §2, §3
# [4] = system: MCF7; experiment: 72 h MTT cytotoxicity assay MCF7; settings: Homo sapiens; MCF7, 72 hrs
# Source text: as §1, §2, §3
# [5] = system: K562 cells; experiment: 72 h MTT cytotoxicity assay K562; settings: Homo sapiens; K562, 72 hrs
# Source text: as §1, §2, §3
# [6] = system: Jurkat; experiment: 72 h MTT cell viability Jurkat; settings: Homo sapiens
# Source text: as §1, §2, §3
# [7] = system: U2OS cells; experiment: 72 h MTT cytotoxicity assay U2OS; settings: Homo sapiens
# Source text: as §1, §2, §3
# [8] = system: MRC-5; experiment: 72 h MTT cell viability MRC-5 (normal lung); settings: Homo sapiens, MRC5
# Source text: as §1, §2, §3
# [9] = system: HL-60; experiment: 72 h MTT cell viability HL-60; settings: Homo sapiens
# Source text: as §1, §2, §3
# [10] = system: ACHN-luc; experiment: 72 h MTT cell viability ACHN-luc; settings: Homo sapiens
# Source text: as §1, §2, §3
# [11] = system: Eca-109 cells; experiment: 72 h MTT cytotoxicity assay Eca-109; settings: Homo sapiens; Eca-109, 72 hrs
# Source text: as §1, §2, §3
# [12] = system: HCT 116; experiment: 72 h MTT cell viability HCT 116; settings: Homo sapiens
# Source text: as §1, §2, §3
# [13] = system: PC-3M-luc; experiment: 72 h MTT cell viability PC-3M-luc; settings: Homo sapiens
# Source text: as §1, §2, §3
# [14] = system: Molt-4-luc; experiment: 72 h MTT cytotoxicity assay Molt-4-luc; settings: Homo sapiens
# Source text: as §1, §2, §3
# [15] = system: THP-1; experiment: 72 h MTT cell viability THP-1; settings: Homo sapiens
# Source text: as §1, §2, §3
# [16] = system: MDA-MB-231-luc; experiment: 72 h MTT cell viability MDA-MB-231-luc; settings: Homo sapiens
# Source text: as §1, §2, §3
# [17] = read-out: Cell Viability IC50 Jurkat
# [18] = MRC-5, normal lung cell line, read-out: Cell Viability IC50 MRC-5
# [19] = read-out: Cell Viability IC50 HCT 116
# [20] = THP-1, read-out: Cell Viability IC50 THP-1
# [21] = HCT116, Table III, read-out: Cellular effect in mammalian cells IC50 HCT116
# [22] = Table III, read-out: Cellular effect in mammalian cells IC50 Jurkat
# [23] = THP-1, Table III, read-out: Cellular effect in mammalian cells IC50 THP-1
# [24] = MRC-5, Table III, read-out: Cellular effect in mammalian cells IC50 MRC-5
SMILES,"IC50 [6, 17] [nM]",IC50 [9] [nM],IC50 [10] [nM],"IC50 [12, 19] [nM]",IC50 [13] [nM],"IC50 [15, 20] [nM]","IC50 [12, 21] [nM]",IC50 [16] [nM],"IC50 [6, 22] [nM]","IC50 [15, 23] [nM]",IC50 [1] [nM],IC50 [2] [nM],IC50 [3] [nM],IC50 [4] [nM],IC50 [5] [nM],IC50 [7] [nM],"IC50 [8, 18] [nM]",IC50 [11] [nM],IC50 [14] [nM],"IC50 [8, 24] [nM]"
"CCCn1cc(-c2ccnc(Nc3cccc(S(N)(=O)=O)c3)n2)c2ccnc(Cl)c21 [Compound 96, 3-(4-(7-chloro-1-propyl-1H-pyrrolo[2,3-c]pyridin-3-yl)pyrimidin-2-ylamino)benzenesulfonamide]",220,370,340,320,480,360,–,–,–,–,120,250,150,250,220,230,890,> 10000,220,–
"CCCn1cc(-c2ccnc(Nc3ccc(S(N)(=O)=O)cc3)n2)c2ccncc21 [Compound 112, 4-(4-(1-Propyl-1H-pyrrolo[2,3-c]pyridin-3-yl)pyrimidin-2-ylamino)benzenesulfonamide]",2.5,8,37,5,27,4,–,–,–,–,30,470,0.4,1.4,1.1,10,> 10000,10,20,–
"CCn1cc(-c2ccnc(Nc3cccc(S(N)(=O)=O)c3)n2)c2cccnc21 [Compound 18, 3-(4-(1-Ethyl-1H-pyrrolo[2,3-b]pyridin-3-yl)pyrimidin-2-ylamino)benzenesulfonamide]",–,1850,2980,–,3550,5370,2100,3300,1310,–,1210,680,1700,710,6690,3070,13300,11700,1050,–
"CCCn1cc(-c2ccnc(Nc3ccc(C)c(S(=O)(=O)N4CCOCC4)c3)n2)c2cccnc21 [Compound 24, N-(4-Methyl-3-(morpholinosulfonyl)phenyl)-4-(1-propyl-1H-pyrrolo[2,3-b]pyridin-3-yl)pyrimidin-2-amine]",1790,3490,5580,3430,5020,5250,–,–,–,–,3690,1320,1600,3480,3680,3300,3880,5300,4510,–
"CCCn1cc(-c2ccnc(Nc3cccc(S(N)(=O)=O)c3)n2)c2nc(Cl)cc(C)c21 [Compound 42, 3-(4-(5-Chloro-7-methyl-1-propyl-1H-pyrrolo[3,2-b]pyridin-3-yl)pyrimidin-2-ylamino)benzenesulfonamide]",–,1140,> 10000,3360,4060,–,–,1280,–,–,1730,550,9930,> 10000,> 10000,1860,14600,10500,4790,–
"CCCn1cc(-c2ccnc(Nc3ccc(C)c(S(=O)(=O)N4CCOCC4)c3)n2)c2ccncc21 [Compound 102, N-(4-Methyl-3-(morpholinosulfonyl)phenyl)-4-(1-propyl-1H-pyrrolo[2,3-c]pyridin-3-yl)pyrimidin-2-amine]",–,230,620,–,1130,–,–,750,–,–,570,500,490,1300,1440,570,–,3520,230,–
"CCCn1cc(-c2ccnc(Nc3cccc(O)c3)n2)c2cccnc21 [Compound 16, 3-(4-(1-Propyl-1H-pyrrolo[2,3-b]pyridin-3-yl)pyrimidin-2-ylamino)phenol]",–,–,7380,–,5110,–,–,5270,–,–,3330,1600,14200,2170,7680,7420,–,12900,3820,–
"CCCn1cc(-c2ccnc(Nc3cccc(S(N)(=O)=O)c3)n2)c2ccncc21 [Compound 111, 3-(4-(1-Propyl-1H-pyrrolo[2,3-c]pyridin-3-yl)pyrimidin-2-ylamino)benzenesulfonamide]",5.4,10,60,–,6,10,–,30,–,–,10,580,10,80,30,30,60,50,10,–
"CCCn1cc(-c2ccnc(Nc3ccc(O)cc3)n2)c2cccnc21 [Compound 15, 4-(4-(1-Propyl-1H-pyrrolo[2,3-b]pyridin-3-yl)pyrimidin-2-ylamino)phenol]",–,–,7810,–,10500,–,–,5940,–,–,4980,1160,10400,120,9810,7440,–,20000,2460,–
"CCCn1cc(-c2ccnc(Nc3cccc(S(N)(=O)=O)c3)n2)c2cccnc21 [Compound 22, 3-(4-(1-Propyl-1H-pyrrolo[2,3-b]pyridin-3-yl)pyrimidin-2-ylamino)benzenesulfonamide]",1470,2090,3740,1890,3190,3260,–,–,–,–,2820,700,1670,1130,1420,2130,5170,3400,2450,–

# The next lines start with results.
"IC50 [6, 17] [nM]",IC50 [9] [nM],IC50 [10] [nM],"IC50 [12, 19] [nM]",IC50 [13] [nM],"IC50 [15, 20] [nM]","IC50 [12, 21] [nM]",IC50 [16] [nM],"IC50 [6, 22] [nM]","IC50 [15, 23] [nM]",SMILES,IC50 [1] [nM],IC50 [2] [nM],IC50 [3] [nM],IC50 [4] [nM],IC50 [5] [nM],IC50 [7] [nM],"IC50 [8, 18] [nM]",IC50 [11] [nM],IC50 [14] [nM],"IC50 [8, 24] [nM]"
–,–,–,–,–,–,4,–,–,–,CCCn1cc(-c2ccnc(Nc3cccc(S(N)(=O)=O)c3)n2)c2ccncc21 [SG51],–,–,–,–,–,–,–,–,–,–
–,–,–,–,–,–,–,–,360,1040,CCCn1cc(-c2ccnc(Nc3cccc(S(N)(=O)=O)c3)n2)c2nc(Cl)cc(C)c21 [SG53],–,–,–,–,–,–,–,–,–,–
–,–,–,–,–,–,280,–,690,410,CCCn1cc(-c2ccnc(Nc3ccc(C)c(S(=O)(=O)N4CCOCC4)c3)n2)c2ccncc21 [SG52],–,–,–,–,–,–,–,–,–,1630
–,–,–,–,–,–,3460,–,1120,2950,CCCn1cc(-c2ccnc(Nc3ccc(S(N)(=O)=O)cc3)n2)c2nc(Cl)cc(C)c21 [SG54],–,–,–,–,–,–,–,–,–,3970
